Reference: the supplement of paper PMC10307832

Tests used:
Assay in all cases: relative viability (nuclei count vs DMSO), 5 days (fraction); higher = more cells survive
AZ628 + Bortezomib = compound: CC1=C(C=C(C=C1)NC(=O)C2=CC(=CC=C2)C(C)(C)C#N)NC3=CC4=C(C=C3)N=CN(C4=O)C [AZ628] + CC(C)C[C@H](NC(=O)[C@H](Cc1ccccc1)NC(=O)c1cnccn1)B(O)O [Bortezomib] (partner 0.002 µM)
How it was run: (§1)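 Dosing by pin tool came one day after lung cancer cell lines were seeded in 1536-well plates, using either one drug or a fixed anchor-drug dose plus five library-drug doses (not always all listed) in √10 steps. After 5 days, nuclei were counted on 4× images. Relative viability is treated-well nuclei count divided by vehicle-well nuclei count, and values are medians of duplicate plates.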

Darinaparsin + Foretinib = compound: C[As](C)SC[C@H](NC(=O)CC[C@H](N)C(=O)O)C(=O)NCC(=O)O [Darinaparsin] + COc1cc2c(Oc3ccc(NC(=O)C4(C(=O)Nc5ccc(F)cc5)CC4)cc3F)ccnc2cc1OCCCN1CCOCC1 [Foretinib] (partner 0.25 µM)
How it was run: as §1

Darinaparsin + Lapatinib = compound: C[As](C)SC[C@H](NC(=O)CC[C@H](N)C(=O)O)C(=O)NCC(=O)O [Darinaparsin] + CS(=O)(=O)CCNCc1ccc(-c2ccc3ncnc(Nc4ccc(OCc5cccc(F)c5)c(Cl)c4)c3c2)o1 [Lapatinib] (partner 2 µM)
How it was run: as §1

[1] = compound: C[As](C)SC[C@H](NC(=O)CC[C@H](N)C(=O)O)C(=O)NCC(=O)O [Darinaparsin] + C[C@@H](Oc1cc(-c2cnn(C3CCNCC3)c2)cnc1N)c1c(Cl)ccc(F)c1Cl [Crizotinib] (partner 1 µM)
How it was run: as §1

Cell Line | relative viability (AZ628 + Bortezomib; first compound 0.08 µM) | relative viability (AZ628 + Bortezomib; first compound 0.253 µM) | relative viability (AZ628 + Bortezomib; first compound 0.8 µM) | relative viability (AZ628 + Bortezomib; first compound 2.53 µM) | relative viability (AZ628 + Bortezomib; first compound 8 µM) | relative viability (Darinaparsin + Foretinib; first compound 0.08 µM) | relative viability (Darinaparsin + Foretinib; first compound 0.8 µM) | relative viability (Darinaparsin + Foretinib; first compound 2.53 µM) | relative viability (Darinaparsin + Foretinib; first compound 8 µM) | relative viability (Darinaparsin + Lapatinib; first compound 0.08 µM) | relative viability (Darinaparsin + Lapatinib; first compound 0.8 µM) | relative viability (Darinaparsin + Lapatinib; first compound 2.53 µM) | relative viability (Darinaparsin + Lapatinib; first compound 8 µM) | relative viability ([1]; first compound 0.08 µM) | relative viability ([1]; first compound 0.8 µM) | relative viability ([1]; first compound 2.53 µM) | relative viability ([1]; first compound 8 µM)
HCC-15 | 1.06 | 0.951 | 0.873 | 0.866 | 0.661 | 1.31 | 1 | 0.98 | 1.26 | 1.04 | 0.76 | 0.81 | 1.11 | 0.931 | 0.743 | 0.784 | 1.06
HCC-366 | 1.04 | 0.894 | 0.957 | 0.999 | 0.681 | 0.905 | 0.91 | 0.965 | 1.14 | 1.63 | 0.95 | 1.03 | 1.67 | 1.26 | 0.523 | 0.265 | 0.828
BEN | 0.882 | 0.653 | 0.666 | 0.813 | 0.616 | 0.668 | 0.708 | 0.621 | 0.691 | 0.844 | 0.77 | 0.671 | 0.743 | 0.956 | 1.01 | 0.741 | 1.17
NCI-H1993 | 1.1 | 1.03 | 0.932 | 0.711 | 0.815 | 0.738 | 0.761 | 0.788 | 0.921 | 0.854 | 0.736 | 0.722 | 0.534 | 0.979 | 0.834 | 0.82 | 0.774
NCI-H2405 | 0.756 | 0.864 | 0.548 | 0.68 | 1.09 | 0.994 | 1.05 | 0.929 | 1.07 | 1.04 | 1.01 | 1.04 | 1.1 | 0.911 | 0.787 | 0.755 | 0.873
NCI-H2126 | 1.16 | 1 | 1.13 | 1.17 | 1.18 | 1.17 | 1.1 | 1.05 | 1.13 | 0.767 | 0.712 | 0.622 | 0.861 | 1.14 | 1.01 | 0.93 | 1.12
LK-2 |  |  |  |  |  | 1.98 |  | 0.769 | 1.83 | 0.978 | 0.622 | 0.926 | 1.05 | 0.208 |  | 0.208 | 0.196
SK-MES-1 |  |  |  |  |  | 1.05 | 0.808 | 0.595 | 1.05 | 0.539 | 0.444 | 0.439 | 0.519 | 1.19 | 1.04 | 0.838 | 1.11
NCI-H1944 |  |  |  |  |  | 0.917 | 0.898 | 0.731 | 0.995 | 0.834 | 0.796 | 0.664 | 0.947 | 1.39 | 1.1 | 1.05 | 1.27
NCI-H1703 | 0.266 | 0.207 | 0.203 | 0.166 | 0.224 | 0.377 | 0.328 |  | 0.307 |  | 1.18 | 1.29 | 1.18 | 1.45 | 0.859 | 0.483 | 0.607
SW 1573 | 0.952 | 0.911 | 0.886 | 0.946 | 0.621 | 1.05 | 1.01 | 0.867 | 1.33 | 1.1 | 1.1 | 1.09 | 1.22 | 1.13 | 0.711 | 0.668 | 0.851
PC-14 | 0.815 | 0.746 | 0.942 | 1.08 | 0.604 | 1.18 | 0.981 | 0.927 | 1.14 | 0.333 | 0.294 | 0.32 | 0.372 | 1.26 | 0.797 | 0.72 | 1.01
LC-2-ad | 1.06 | 0.926 | 0.972 | 0.972 | 0.751 | 0.949 | 1.02 | 0.987 | 0.836 | 1.14 | 0.863 | 0.892 | 1.08 | 0.524 | 0.459 | 0.447 | 0.383
201T | 1.15 | 1.13 | 1.13 | 1.16 | 1.21 | 1.2 | 1.15 | 1.19 | 1.03 | 1.05 | 1.03 | 1.02 | 0.76 | 1.09 | 1.02 | 1 | 1.09
NCI-H2023 | 1.19 | 1.07 | 1.06 | 0.981 | 0.821 | 0.847 | 0.78 | 0.821 | 0.904 | 1 | 0.85 | 0.63 | 1.2 | 0.745 | 0.636 | 0.56 | 0.754
HOP-62 | 0.814 | 0.832 | 1.12 | 0.975 | 0.805 | 1.2 | 1.16 | 0.969 | 1.13 | 1.12 | 1.01 | 0.97 | 1.29 | 1.02 | 1.05 | 1.05 | 1.06
NCI-H661 | 0.823 | 0.805 | 0.684 | 0.699 | 0.562 | 1.01 | 0.995 | 1.08 | 1.26 | 0.509 | 0.584 | 0.513 | 0.511 | 1.08 | 1.11 | 0.929 | 1.1
NCI-H1395 |  |  |  |  |  | 1.13 | 0.958 | 0.944 | 0.952 | 1.3 | 0.949 | 1.03 | 1.37 |  |  |  | 
A549 |  |  |  |  |  | 1.27 | 0.991 | 0.896 | 1.41 | 1.45 | 1.05 | 1.01 | 1.06 | 1.33 | 0.891 | 0.605 | 0.985
NCI-H1623 |  |  |  |  |  | 0.902 | 0.832 | 0.871 | 0.868 |  |  |  |  |  |  |  | 
NCI-H2170 |  |  |  |  |  | 1.01 | 0.965 | 0.992 | 1.19 | 0.283 | 0.257 | 0.286 | 0.285 | 1.61 | 1.35 | 0.953 | 1.51
SW 900 |  |  |  |  |  | 0.919 | 0.778 | 0.918 | 1.06 |  |  |  |  |  |  |  | 
NCI-H441 | 0.733 | 0.47 | 0.973 | 0.454 | 0.441 | 1.2 | 1.25 | 1.07 | 0.902 |  |  |  |  | 0.956 | 0.729 | 0.676 | 0.701
